# Assays:
# ERK1/2 = assay: Western blot of ERK1/2 phosphorylation in colonocytes exposed to C. difficile toxin or LPA; assay type: cell-based, human; settings: for TxB's activation of ERK: colonocytes preincubated with BAPTA 20uM or GF109203X 1uM before TxB addition
# Description: NCM460 or HT29 cells were seeded in 12 well plates and grown to 70%-100% confluency. Cells were serum starved overnight prior to experiments. TxB or TxA were added in serum free medium at the indicated concentrations for varying lengths of time. Cells were then washed three times with ice cold phosphate buffered saline (PBS) and lysed in 1×SDS sample buffer (Cell Signaling Technology, Beverly, Mass.). Equal amounts of cell lysates were loaded onto 10% SDS-PAGE gels and transferred to nitrocellulose membranes (Bio-Rad Laboratories, Hercules, Calif.). Blots were probed with each primary antibody overnight at 4° C. and then with species-specific secondary antibodies coupled with horseradish peroxidase for 1 hour at room temperature. Peroxidase activity was detected by SuperSignal Chemiluminescent Substrate (Pierce, Rockford, Ill.). Signals were analyzed and quantified as described (Na, X. et al., EMBO J., 22:4249-4259 (2003)) and results were expressed as mean ±SD.
# Rho = assay: C3 exoenzyme-catalyzed ADP-ribosylation assay (TxB-induced Rho glucosylation); assay type: cell-based, human; settings: NCM460 cells; EGFR antibody 20 μg/ml or AG1478 0.5 μM 30 minutes, then TxB 20 nM 1 hour
# NCM460 cells = assay: Cell rounding assay; assay type: cell-based, human; settings: EGFR antibody 20 μg/ml or AG1478 0.5 μM 30 minutes, then TxB 20 nM 1 hour
# Description: NCM460 cells were seeded on glass cover slides overnight. […] Cells were then fixed with formaldehyde for 10 minutes and rinsed three times in PBS. Percentage of cell rounding was quantitated by phase-contrast microscopy.
# IL-8 promoter = assay: IL-8 luciferase promoter assay; assay type: cell-based, human; settings: NCM460 cells; inhibitor 30 minutes, then TxB 20 nM 16 hours; versus DMSO
# Description: A 1521-bp fragment (nucleotides −1481 to +40) of the promoter region of the human IL-8 gene was used to monitor transcription of IL-8 gene as previously described (Keates, S. et al., J. Biol. Chem., 276:48127-48134 (2001)). Cells were grown on 24-well plates and transiently transfected with the IL-8 promoter luciferase construct and a control luciferase construct pRL-TK (Promega Corp., Madison, Wis.) using Superfect (Qiagen Inc., Chatsworth, Calif.). Transfected cells were serum starved overnight and then exposed to TxB and/or pharmacological inhibitors at the indicated times. Cells were lysed, and firefly and renilla luciferase activities in cell extracts were measured using Dual-Luciferase Reporter Assay System (Promega Corp., Madison, Wis.). The relative luciferase activity was calculated by normalizing IL-8 promoter-driven firefly luciferase activity to control Renilla luciferase activity. Data from all experiments are represented as the relative luciferase activity (mean ±SD) from at least three independent sets of experiments, each with triplicate measurements.
# IL-8 [1] = settings: cited from earlier work
# IL-8 [2] = settings: cited from earlier work; remark: listed apart in the source
# EGFR = molecular target: T1, EGFR (Homo sapiens, UniProt P00533); assay: Western blot of EGFR phosphorylation in colonocytes exposed to C. difficile toxin; assay type: cell-based; settings: for TxB's activation of EGFR: colonocytes preincubated with BAPTA 20uM or GF109203X 1uM before TxB addition
# T1 construct: endogenous in cells; host or cells: NCM460 (nontransformed human colonic epithelial cells); HT29 (colonic adenocarcinoma cells)
# T1 sequence (P00533 25-1210): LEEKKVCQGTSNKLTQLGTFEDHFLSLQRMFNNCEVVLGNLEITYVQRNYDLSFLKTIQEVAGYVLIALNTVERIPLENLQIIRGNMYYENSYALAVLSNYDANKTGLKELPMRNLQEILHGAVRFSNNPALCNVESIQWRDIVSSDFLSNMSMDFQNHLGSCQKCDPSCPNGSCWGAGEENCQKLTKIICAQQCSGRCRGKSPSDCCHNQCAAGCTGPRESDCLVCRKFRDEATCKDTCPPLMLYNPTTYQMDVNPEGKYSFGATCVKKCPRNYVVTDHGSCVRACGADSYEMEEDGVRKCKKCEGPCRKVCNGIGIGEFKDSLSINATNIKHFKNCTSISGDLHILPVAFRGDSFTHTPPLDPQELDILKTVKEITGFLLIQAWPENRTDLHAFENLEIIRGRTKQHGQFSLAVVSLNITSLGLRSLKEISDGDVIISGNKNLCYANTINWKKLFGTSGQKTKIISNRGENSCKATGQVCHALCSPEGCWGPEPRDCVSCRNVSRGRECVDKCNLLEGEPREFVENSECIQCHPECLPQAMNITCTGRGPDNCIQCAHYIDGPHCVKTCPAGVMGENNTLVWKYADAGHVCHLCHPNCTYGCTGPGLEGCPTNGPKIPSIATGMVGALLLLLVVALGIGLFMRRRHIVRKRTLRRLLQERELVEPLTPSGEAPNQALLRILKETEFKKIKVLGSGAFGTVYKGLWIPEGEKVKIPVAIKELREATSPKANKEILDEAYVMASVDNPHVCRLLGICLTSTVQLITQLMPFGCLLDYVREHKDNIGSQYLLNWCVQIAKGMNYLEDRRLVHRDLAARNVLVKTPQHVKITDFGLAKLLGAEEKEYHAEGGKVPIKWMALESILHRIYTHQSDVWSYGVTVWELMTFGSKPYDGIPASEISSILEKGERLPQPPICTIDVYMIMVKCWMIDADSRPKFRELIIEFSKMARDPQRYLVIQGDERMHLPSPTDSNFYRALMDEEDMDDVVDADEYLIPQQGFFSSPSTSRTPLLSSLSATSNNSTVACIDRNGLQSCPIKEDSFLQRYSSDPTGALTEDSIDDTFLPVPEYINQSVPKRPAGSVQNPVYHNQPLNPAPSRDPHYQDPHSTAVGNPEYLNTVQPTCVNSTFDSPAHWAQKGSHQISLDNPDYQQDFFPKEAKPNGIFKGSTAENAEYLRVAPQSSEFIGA
# TGF-α = TGF-α secretion ELISA; assay type: cell-based, human; settings: NCM460 cells; GM6001 25 μM 30 minutes prior to TxB for 1 or 3 hours; versus DMSO
# Description: TGF-α secretion from colonocyte cultures was measured by enzyme-linked immunosorbent assay. Briefly, 96-well Nunc-immuno plates (Fisher Scientific) were coated with 0.4 ug/ml of TGF-α antibody diluted in PBS overnight at room temperature. Wells were blocked with PBS containing 1% BSA for 1 hour after washing 3 times with PBST (PBS with 0.1% Twin-20). Fifty μl of conditioned media or serial dilutions of TGF-α in PBS containing 1% BSA were then added to each well. After 2 hours, wells were washed and incubated with 0.3 μg/ml biotin-conjugated anti-TGF-α antibody for 1 hour. Streptavidin-horseradish peroxidase (1:1500) from Amersham Bioscience (Amersham, UK) was added to the wells. Peroxidase activity was measured by TMB Peroxidase Substrate Reagents (KPL Inc, Gaithersburg, Md.).
structure (smiles),measurement,setting,value
"COc1cc2ncnc(Nc3cccc(Cl)c3)c2cc1OC [AG1478, tyrphostin AG1478]",Activation of ERK1/2 by TxB,"ERK1/2; NCM460 cells, AG1478 0.2-1.0 uM for 30 minutes, then TxB 20 nM 60 minutes",completely blocked
same,TxB-induced Rho glucosylation,Rho,"neither an EGFR antibody, nor a specific EGFR inhibitor, AG1478, altered"
same,TxB-induced cell rounding,NCM460 cells,"neither an EGFR antibody, nor a specific EGFR inhibitor, AG1478, altered"
same,TxB-mediated IL-8 expression,IL-8 promoter,significantly inhibited
same,IL-8 production mediated by H. pylori,IL-8 [1],significantly reduced
same,IL-8 production mediated by neurotensin,IL-8 [2],significantly reduced
O=C(O)CN(CC(=O)O)c1ccccc1OCCOc1ccccc1N(CC(=O)O)CC(=O)O [BAPTA],TxB's activation of EGFR,EGFR,decreased
same,TxB's activation of ERK,ERK1/2,decreased
CN(C)CCCn1cc(C2=C(c3c[nH]c4ccccc34)C(=O)NC2=O)c2ccccc21 [GF109203X],TxB's activation of EGFR,EGFR,decreased
same,TxB's activation of ERK,ERK1/2,decreased
CNC(=O)[C@H](Cc1c[nH]c2ccccc12)NC(=O)[C@@H](CC(=O)NO)CC(C)C [GM6001],Activation of the EGFR induced by TxB,"EGFR; NCM460 cells, BB94 or GM6001 25 μM 30 minutes prior to TxB 20 nM, versus DMSO at 60 minutes",significantly inhibited
same,Activation of ERK1/2 induced by TxB,"ERK1/2; NCM460 cells, BB94 3 mg/ml or GM6001 25 μM 30 minutes prior to TxB 20 nM, versus DMSO at 60 minutes",significantly inhibited
same,TxB-induced TGF-α secretion,TGF-α,significantly inhibited
COc1cccc(-c2cc(=O)c3ccccc3o2)c1N [PD98059],TxB-mediated IL-8 expression,IL-8 promoter,significantly inhibited
